# “And” between values parts separate entries of the source, which are not always exact repeats. Equal entries are not always repeated.
# Legend:
# powdery mildew = powdery mildew on roses, disease rating / MPDC after foliar spray; format: in vivo, Sphaerotheca pannosa; conditions: for Mean % Disease Control, rose powdery mildew: no aldehyde: additive alone (T80 10 g, NaHCO3 80 g) or Benomyl per manufacturer instructions, four days
# Procedure: Each formulation is evaluated for its effect on specific pests and/or plant host using any of the compounds of formula (1) as well as other components of the formulation such as Tween 80 and/or sodium bicarbonate, with the combination and effective amount of each component adapted for a particular application to minimize toxicity while maintaining or increasing the antipathogenic effect of the formulation. The effective amount of each component may be determined by systematically varying the amount of that component in a test formulation, treating a plant of interest with the test formulation, and monitoring the level of pest infestation compared to an untreated control plant. An effective amount of a test component is identified as the amount that controls the growth of the pathogen on the plant host, thus reducing the disease rating of the plant. The mean percentage disease […] (MPDC) can be calculated for each particular application. MPDC is defined by the formula: [formula] Eight cultivars of rose were tested to investigate the effect of a cinnamic aldehyde/NaHCO3 formulation on rust and spores. The cultivars used included Moss unnamed (Moss), […], Rosette Delize (Hybrid Tea), Rosa Rugosa Rubra (Rugosa), Abel Morrison (Hybrid perpetual), John Laing, Betty Prior, and Rose de Roi. […] The Hybrid Tea and Hybrid perpetual were rated 3 and the Rugosa was rated 1. […] Control plants received no treatment. […] Moreover, the treatment appeared to have induced systemic resistance. […] Plants were an average of 0.86 m apart. […] Controls were untreated plants. […] Weekly reviews were made of the various plants. […] of infected rose in dedicated experimental rose gardens were used. Four Mrs. John Laing (Hybrid perpetual) and two Marchionese of Londonderry (Hybrid perpetual) rose plants were treated with one of two formulations of coniferyl aldehyde. […] The first two Mrs. […] Mrs. […] Both Marchionese of Londonderry plants (P5 and P6) were rated 5 for powdery mildew and rust after Paulus and Nelson (supra). Two treatment formulae were used for this trial. […] Control plants were sprayed with water alone. The change in the rating from pre-treatment to post-treatment was calculated as the mean percentage of disease control (MPDC) as described herein. A three treatment experiment with cinnamic aldehyde formula, coniferyl aldehyde formula and combined cinnamic and coniferyl aldehyde formula was carried out on field grown roses known to be susceptible to powdery mildew. The plants were blocked by variety before fungicide treatments and were randomized as to the plants. Two varieties were used in each of the three experiments described below. […] In experiment 3 Comte de Chambord (Portland) and Madame Pierre Oger (Bourbon) were used. In Experiment 1, the effect of cinnamic aldehyde alone and in combination with Tween 80 and/or NaHCO3 component was evaluated in experiment 2 the effect of coniferyl aldehyde alone and in combination with Tween 80 and/or NaHCO3 was evaluated and in experiment 3 a combination of cinnamic aldehyde and coniferyl aldehyde with Tween 80 and/or NaHCo3 was evaluated. […] See Table 3 for the treatment protocol; formula 1 was used for these experiments. […] Plants were evaluated using the Paulus/Nelson scale just prior to and four days after treatment. […] Moreover, cinnamic aldehyde, coniferyl aldehyde, Tween 80 and NaHCO3 are used in the food industry and there is likely to be little toxicological risk to the consumer or handler from any horticultural or food crop sprayed in this way. Similarly, as these chemicals leave no toxic residue, there is little chance of any detrimental effect on the wider environment, and their use is likely to be compatible with current biological control methods such as beneficial insects and/or microorganisms.
# [1] = tested on: Fusarium subglutinans f. sp. pini; assay: radial growth on amended potato dextrose agar; format: cell-based; conditions: controls: Saponin alone, 5 ppm Benomyl, Glutaraldehyde 2%; five days at 18° C
# Procedure: A double-blind bioassay was undertaken using cinnamic aldehyde in various concentrations and formulations. The bioassay was based on inhibition of radial growth of Fusarium subglutinans f. sp. pini. Eight ml of formulation (concentration unknown) was pipetted into 200 ml of molten 2% potato dextrose agar (PDA) and the mixture was dispersed into five plastic petri dishes (25 ml dish). Each of four plates was inoculated at the center with an agar plug transferred from a growing PDA culture of Fusarium subglutinans f. sp. pini (isolate SL-1, UCB), while the fifth plate was left noninoculated as a control. These steps were repeated for each formulation of the cinnamic aldehyde. As a positive control, four PDA plates amended with 5 ppm benomyl were inoculated. as described; the negative control was four unamended PDA plates that were inoculated with F. subglutinans. All inoculated and non-inoculated plates were incubated at 18° C. for five days, after which colony diameters were measured.
# grape phylloxera eggs = assay: whole plant or invertebrate; conditions: for nymphs that died in the shell (DIS): controls: Carbofuran 10 ppm, malathion 250 ppm, 7 days; for approximate egg hatch LD 50: egg tests with CNMA analogs
# Procedure: Mixed age groups of 60 grape phylloxera eggs were established on filter paper (Whatman #1, 5.5 cm circles) in 50×9 mm sealed plastic petri dishes treated with 100 μl of solution. A selected concentration of a test formulation of 400 μl was added to the filter disk and the dish closed with the petri dish cover and placed in a plastic container box. After 6 hours, the box was placed in an environmental chamber at 24° C. in the dark. The eggs were placed in groups of 10. After one week, the percentage of hatch is determined. In an initial test, doses from 0.1 to 25,000 ppm cinnamic aldehyde in 6% NaHCO3 and 2% Tween 80 were evaluated with a single group of eggs at each dosage. Three replicates of the experiment were performed. […] LD50 and LD95 were determined by probit analysis.
# Grape phylloxera eggs were treated with cinnamaldehyde (CNMA) in a 6% NaHCO3, 2% Tween-80 formulation in a laboratory bioassay. Mortality of the eggs was indicated by failure of the egg shell to split. […] Leaves of one-year-old greenhouse Vitis vinifera cultivar Merlot vines heavily infested with grape phylloxera were sprayed to run-off with a CNMA treatment using the same formulation. […] Roots taken from plants 1, 2 and 5 weeks after CNMA or other treatments were placed in Petri dish bioassays and infested with untreated phylloxera eggs.
# Eggs of various age classes were placed on Whatman #1 filter paper moistened with enough treatment solution to form a meniscus about halfway up the sides of the eggs. The pieces of filter paper with eggs were maintained in sealed plastic Petri dishes at […] until they were 7 days old and then hatched individuals were counted. Hatch was considered successful if the […]
# [2] = tested on: root-knot nematode, Meloidogyne javanica; format: in vivo; conditions: controls: saponin alone (1:60 dilution of 10 brix concentrate; compared with 100% mortality), Ethanol (95%)
# Procedure: In a double blind study, concentrations of the subject aldehyde compounds were tested for activity against root-knot nematode, Meloidogyne javanica. Nematodes were put in direct contact with the chemical and at 24 hour intervals, mortality was assessed both visually and by probing. Meloidogyne javanica were produced using hydroponics. The nematodes were harvested and used within 24 hours.
# Approximately 100 nematodes in 0.07 mls of water were pipetted into a syracuse dish (Fisher) and 1 ml of test formulation was immediately pipetted into each dish. The dishes were then placed into plastic bags to retain moisture and prevent evaporation. Four syracuse dishes were used for each solution test formulation. […] Moving nematodes were counted as living.
# [3] = tested on: silverleaf white fly, Bemisia argentifolii; assay: silver leaf white fly Petri dish bioassay; conditions: for Silver Leaf White Fly Mortality (Percent): no aldehyde: T80 (10 g), NaHCO3, T80(2%) + NaHCO3 (6%) or Malathion (250 ppm) alone
# Procedure: (§1) Activity of cinnamic aldehyde and/or coniferyl aldehyde against black bean aphid, Tetranychus urticae, and silverleaf white fly, Bemisia argentifolii was determined as follows:
# Petri dishes (60 mm) were treated with cinnamic aldehyde at 10-25,000 ppm in 2% Tween 80 and 6% NaHCO3 dissolved in water, and allowed to air dry. Twenty adult silver leaf white fly were put in each dish, (replicate 10 times). The mortality after three hours in contact with a treated plate, was compared to that of silver leaf white fly in petri dishes treated only with diluent. Malathion at 250 ppm was used as a positive control.
# grape phylloxera = grape phylloxera adult and nymphal mortality, root dip; format: in vivo, Daktulosphaira vitifoliae; conditions: Daktulosphaira vitifoliae, 120 h; positive control 250 ppm malathion in water; root dip; 5 days; read-out: mortality of adults and nymphs
# Procedure: Approximately twenty four eggs of phylloxera were allowed to develop for up to 30 days on standard excised grape roots. At around 30 days, some of the insects were nymphs while others were adults. New eggs were removed during the process. Insect infected roots were submerged into a test formula for 6 seconds then set aside to dry in the air. The percentage of live insects, as defined by growth, oviposition or limb movement, was determined after 5 days. An insect was considered dead if it abandoned its feed site.
# In an initial test, doses of 20,000 ppm cinnamic aldehyde in water (i.e., 2% cinnamic aldehyde) with various additives were evaluated. Cinnamic aldehyde without any additives produced 83.3% mortality. With-1% Tween 80 added, 91.7% mortality was seen. With 6% NaHCO3 added to a solution of 2% cinnamic aldehyde, 91.7% mortality was seen. With 1% Tween 80 and 6% NaHCO3 added to a solution of 2% cinnamic aldehyde, 100% mortality was seen. Water with no additives produced no mortality, while a positive control solution of 250 ppm malathion in water gave 100% mortality.
# For nymph and adult tests, eggs were placed on excised root pieces similar to those used for rearing purposes and these were sealed in Petri dishes and held at 24° C. for 18-25 days to allow insects to hatch, initiate feeding sites and develop. At about this time about half the population was in the adult stage. Prior to testing, the population on each root was determined as well as the developmental stage of each insect. Eggs were removed. These root pieces were then dipped for 5 sec into test solutions and allowed to air dry before they were returned to Petri dishes, sealed and placed back in the temperature chamber at 24° C. Mortality was determined after 5 days. Insects were considered dead if they appeared black or desiccated and if they had not developed since the pre-treatment reading and had laid no or few new eggs.
# phylloxera-biotype A = assay: greenhouse Merlot vines infested with phylloxera, leaf spray, disease rating of roots; format: in vivo, Daktulosphaira vitifoliae; conditions: Experiment 2, 200 ppm Malathion leaf treatment
# Description: For greenhouse tests, one year old potted V. vinifera cultivar merlot plants were used that had been obtained from Foundation Plant Material Service, University of California, Davis. The plants were potted in 10 cm diameter pots and were infested with phylloxera 5 weeks prior to treatment. At the time of spraying with a treatment solution, plant pots were placed in a plastic bag so that chemical runoff from the leaf sprays would not drip into the soil. The plants were sprayed to runoff with a household 1 liter-capacity plastic spray bottle. Plants were allowed to air dry outside and then replaced in the greenhouse. At intervals thereafter, the roots were separated from the potting mix and total phylloxera population estimated.
# [4] = tested on: black bean aphid, Tetranychus urticae; assay: aphid Petri dish bioassay; conditions: malathion 250 ppm, positive control; three hours contact
# Procedure: as §1
# Petri dishes (60 mm) were treated with cinnamic aldehyde at 10-25,000 ppm in 2% Tween 80 and 6% NaHCO3 dissolved in water, and the dishes allowed to air dry. Twenty adult aphids (Tetranychus urticae) were put in each dish, (replicate 10 times). The mortality after three hours in contact with a treated plate was compared to that of aphids in petri dishes treated only with diluent. Malathion (250 ppm) was used as a positive control.
compound,measurement,setting,value
"CCCCNC(=O)n1c(NC(=O)OC)nc2ccccc21 [Benomyl, reference compound]","Mean % Disease Control, rose powdery mildew",powdery mildew,79%
same,Mean disease control,"powdery mildew; sprayed roses, parallel experiments",approximately 80%
same,Colony diameter (cm),[1],0.000 cm and 0 cm
"CNC(=O)Oc1cccc2c1OC(C)(C)C2 [Carbofuran, reference compound]",nymphs that died in the shell (DIS),grape phylloxera eggs,100%
COC(=O)C=Cc1ccccc1 [Cinnamyl acid methyl ester],approximate egg hatch LD 50,grape phylloxera eggs,> 320 ppm and < 560 ppm
OCC=Cc1ccccc1 [Cinnamyl alcohol],approximate egg hatch LD 50,grape phylloxera eggs,> 320 ppm and < 560 ppm
"CCO [Ethanol, reference compound]",mortality at 24 hours,[2],killed all nematodes
"O=CCCCC=O [Glutaraldehyde, reference compound]",Colony diameter (cm),[1],3.663 cm and 3.66 cm
O=C([O-])O.[Na+] [NaHCO3],"Mean % Disease Control, rose powdery mildew",powdery mildew,44%
same,Silver Leaf White Fly Mortality (Percent),[3],22.9%
"CCCCCCCC/C=C\CCCCCCCC(=O)OCCOCC(OCCO)C1OCC(OCCO)C1OCCO (stereo not shown) [T80, Tween 80]","Mean % Disease Control, rose powdery mildew",powdery mildew,0%
same,Silver Leaf White Fly Mortality (Percent),[3],14.5%
"CCOC(=O)CC(SP(=S)(OC)OC)C(=O)OCC (stereo not shown) [malathion, reference compound]",mortality at 250 ppm,grape phylloxera,100%
same,nymphs that died in the shell (DIS),grape phylloxera eggs,100%
same,Average disease rating (0-4),phylloxera-biotype A; 1 day post treatment,4 (3)
same,Average disease rating (0-4),phylloxera-biotype A; 2 days post treatment,2.3(3)
same,Average disease rating (0-4),phylloxera-biotype A; 7 days post treatment,0(2)
same,aphids killed,[4],100%
same,silver leaf white fly killed,"[3]; malathion 250 ppm, positive control, three hours contact",100%

# — patent US20030005484A1, “Microbiocidal and pesticidal aromatic aldehydes” (ProGuard, Inc., priority 1994, published 2003)
